The IC50 is the concentration that inhibits the measured activity by half. In general, EC50 refers to the midpoint of the concentration-response curve.

Entries after “also recorded” stand apart in the source; their conditions may differ.

In data set [1] the target is T1, S-formylglutathione hydrolase (SFGH) (Escherichia coli, UniProt P51025).
T1 construct: made in house; host or cells: E. coli BL21
The experiment in a line: Substrate inhibition assay (p-nitrophenylacetate), IC50 determination. The class given is biochemical. Conditions: beta-lactone G2; substrate 2.4 mM, enzyme 30 nM; estimated. On the procedure: SFGH mediated […] of the p-nitrophenylacetate leads to the release of p-nitrophenol which can be monitored at 400 nm. Various concentrations of beta-lactone G2 were added to a solution containing the substrate (2.4 mM) and enzyme (30 nM). Reactions were started by addition of the enzyme and subsequently monitored for 6 min. The mean average slopes of absorption (out of three independent experiments) versus beta-lactone concentration were plotted and the concentration of 50% inhibition (IC50) was estimated.

Data set [2] deals with lipase (Lip). The experiment in a line: ABPP probe dose down in proteome, lipase labeling. The class given is binding. The settings on record: L. welshimeri proteome, concentration range 10 μM to 5 nM. On the procedure:
(§1) To estimate the strength of probe interactions with proteins in the proteome, we compared the reactivity profiles of selected beta-lactones across a broad concentration range from 10 μM to 5 nM.
(§2) Proteome samples were adjusted to a final concentration of 1 mg protein/mL by dilution in PBS prior to probe labeling. Experiments for visualization by 1D SDS-PAGE were carried out in 43 μL total volume and those for affinity enrichment in 1892 μL total volume, such that once CC reagents were added, the total reaction volume was 50 μL and 2 mL, respectively. Reactions were initiated by addition of the probe and allowed to incubate for 60 min at room temperature. For heat controls the proteome was denatured with 1 μL of 43% SDS at 95° C. for 6 min and cooled to room temperature before the probe was applied. Following incubation, reporter tagged-azide reagents (13 μM rhodamine-azide for analytical or 20 μM rhodamine-biotin-azide for preparative scale) were added followed by 1 mM TCEP and 100 μM ligand. Samples were gently vortexed and the cycloaddition initiated by the addition of 1 mM CuSO4. The reactions were incubated at room temperature for 1 h (Speers, J. Amer. Chem. Soc. 125 (2003), 4686).

The test system of data set [3] is lipase/acylhydrolase (LipAc). The data set can be described thus: ABPP probe dose down in proteome, lipase/acylhydrolase labeling. Format: binding. Conditions: L. welshimeri proteome. On the procedure: as §1, §2
The target of data set [4] is T2, Aldehyde dehydrogenase B (ADB) (Escherichia coli, UniProt P37685).
T2 construct: endogenous in cells; host or cells: Escherichia coli K12 lysate, cytosol fraction
T2 sequence (P37685 whole entry): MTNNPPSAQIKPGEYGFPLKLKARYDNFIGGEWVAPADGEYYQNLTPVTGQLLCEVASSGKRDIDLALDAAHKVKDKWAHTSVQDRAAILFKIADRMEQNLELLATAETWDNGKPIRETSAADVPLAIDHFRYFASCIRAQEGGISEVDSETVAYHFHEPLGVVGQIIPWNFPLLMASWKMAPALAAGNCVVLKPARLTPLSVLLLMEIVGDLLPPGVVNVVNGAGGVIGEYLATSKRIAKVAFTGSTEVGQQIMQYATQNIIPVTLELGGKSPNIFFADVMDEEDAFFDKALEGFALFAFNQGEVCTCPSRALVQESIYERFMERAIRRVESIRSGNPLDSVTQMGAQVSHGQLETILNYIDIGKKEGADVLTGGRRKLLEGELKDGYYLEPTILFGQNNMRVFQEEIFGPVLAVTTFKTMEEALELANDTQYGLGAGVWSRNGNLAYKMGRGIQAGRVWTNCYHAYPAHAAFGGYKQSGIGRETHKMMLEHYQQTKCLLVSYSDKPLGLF
The experiment in a line: ABPP labeling of E. coli cytosol. Conditions: 100 nM probe concentration, no other off targets. Format: binding. The protocol: as §1, §2

Data set [5] has as its system β-Ketoacyl acyl carrier protein synthase II (KAS II). The experiment in a line: ABPP labeling of bacterial proteomes, KAS II. Format: binding, L. welshimeri, B. subtilis. The settings on record: 50 μM probe, FIGS. 9A and 9B. From the text:
The library of beta-lactones to be tested comprised compounds with aliphatic or aromatic substitutions varying in length and branching. To evaluate the target selectivity, the beta-lactones were screened against several gram-positive and gram-negative bacterial proteomes including Pseudomonas putida, Listeria welshimeri, Bacillus licheniformis, Bacillus subtilis and Escherichia coli, which are phylogenetically related to pathogenic strains. In addition, mouse liver cytosol was included as an eukaryotic reference proteome. Initial labeling experiments were carried out by adding individual probes at 50 μM concentration to the proteome which is sufficient to achieve full saturation of most targets. […] As an example, labeling of L. welshimeri cytosolic and membrane proteomes as well as B. subtilis cytosolic proteome with a subset of the most complementary probes is shown in FIGS. 9A and 9B. […] Most of the targeted proteins were of low abundance as shown by the direct comparison of the relative intensities observed with Coomassie staining vs. fluorescence scanning (FIG. 11).
Proteome samples were adjusted to a final concentration of 1 mg protein/mL by dilution in PBS prior to probe labeling. […]

The test system of data set [6] is LLO haemolytic activity of L. monocytogenes EGDe. The experiment in a line: LLO haemolytic activity testing of culture supernatants. The class given is cell-based, Listeria monocytogenes EGDe. The settings on record: Listeria monocytogenes, Erythrocyte; cultures grown 16 h with lactone, sheep red blood cells; read-out: EC50 of reduction of LLO haemolytic activity. On the procedure:
Overnight cultures of L. monocytogenes EGDe were harvested by centrifugation and resuspended in an equal volume of fresh BHB medium. In 1.5 mL Eppendorf tubes, 400 μL of BHB medium were inoculated with 4 μL of the resuspended Listeria culture and 4 μL of a corresponding beta-lactone stock in DMSO. The final concentrations were 800 μM, 400 μM, 200 μM, 100 μM and DMSO as control. The amount of DMSO in all tests was 1% of the medium. After mixing, the test tubes were incubated under continuous shaking at 200 rpm at 37° C. for 16 h. Then, cells were centrifuged and the supernatants filtered sterile by passing them through a 0.2 μm pore size filter. Haemolytic activity of LLO in the culture supernatants was quantitatively investigated according to a method described in J. Food Safety 1998, 18: 197-203 (incorporated herein by reference) with some modifications. In Nunclon™ 96-well plates with round shaped wells 100 μL of serial dilutions of the supernatants in PBS were added per well and incubated with 100 μL of 3% SRBC (sheep red blood cells) resuspended in PBS for 15 min at 37° C. under gentle shaking. The 96-well plates were centrifuged at 600 rpm for 5 min and the minimum dilution at which intact blood cells began to form a pellet was recorded. Controls with no lactone were set 100%. Buffer only controls and pure BHB medium yielded no haemolysis.

Data set [7] deals with HeLa cells. The experiment in a line: Cytotoxicity, WST-1 cell proliferation test. The class given is cell-based. The settings on record: up to a concentration of 1 mM (300 mg/L), 24 h. On the procedure: Cytotoxicity was determined in HeLa cells using the WST-1 cell proliferation test. Trypsinated cells were seeded at 100 μL aliquots with antibiotic free medium in Nunclon™ flat-bottom 96-well plates with 1·10^4 cells per well. After incubation of HeLa cells for 24 h, the medium was replaced by antibiotic free test medium containing 1 mM, 100 μM and 10 μM beta-lactone U1, DMSO as non-toxic control and 1% Triton X-100 as 100% lethal control. The DMSO content in all tests was kept at 1%. HeLa cells with test medium were incubated for 24 h, then 10 μL WST-1 reagent were added and after 30 min incubation absorption at 450 nm was read with 630 nm reference wavelength using a TECAN GENios Pro microplate reader.
(In general: Formazan colour is commonly taken as a measure of viable cells.)

The test system of data set [8] is Listeria monocytogenes EGDe in the mouse macrophage-like cell line J774. The experiment in a line: Infection of J774 cells and intracellular growth assay. Format: cell-based. Conditions: 1 mM, 3 h and 5 h post infection, vs DMSO. On the procedure: In a Nunclon™ 96-well plate with flat-bottom 1·10^5 J774 cells per well were seeded in 100 μL 90% DMEM medium with 10% FBS without antibiotics. After 24 h incubation the resulting monolayer was washed once with 100 μL PBS and 100 μL of L. monocytogenes EGDe suspension in 90% DMEM medium with 10% FBS without antibiotics was added either with 1 mM beta-lactone U1 or DMSO. L. monocytogenes was grown in an over night culture with beta-lactone/DMSO and resuspended to approximately 10^6 cells/mL resulting in a multiplicity of infection (MOI) of 0.5. Macrophages were infected for 15 min at 37° C. after 15 min bacterial adherence on ice, as described in Molecular Microbiol. 2000, 35(6): 1286-1294 (incorporated herein by reference). Thereafter, the infected monolayer were washed two times with 100 μL PBS each and fresh 90% DMEM medium with 10% FBS containing 10 μg/mL gentamicin and 1 mM beta-lactone U1 or DMSO was added. After 0, 3 and 5 h post infection, the monolayers were washed again with two times 100 μL PBS and eukaryotic cells lysed by the addition of two times 250 μL of 0.05% solution of Triton X-100 in sterile deionised water. Intracellular bacteria were quantified by colony counting of serial dilutions plated on Listeria-agar (Ottaviani & Agosti Agar, Heipha Diagnostika, Eppelheim, Germany).

T1 sequence (P51025 whole entry): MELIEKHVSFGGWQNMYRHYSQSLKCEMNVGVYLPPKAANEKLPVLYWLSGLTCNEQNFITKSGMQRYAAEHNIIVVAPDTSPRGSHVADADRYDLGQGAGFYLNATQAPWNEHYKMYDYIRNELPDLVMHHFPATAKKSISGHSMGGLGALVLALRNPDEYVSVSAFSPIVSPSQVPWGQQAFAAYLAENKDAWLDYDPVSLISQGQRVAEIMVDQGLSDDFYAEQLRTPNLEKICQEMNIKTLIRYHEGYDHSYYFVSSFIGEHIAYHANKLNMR

Turning to `C#CCCCC1OC(=O)C1CCCC` (stereo not drawn) [G2, trans-3-butyl-4-(4-pentyn-1-yl)oxetan-2-one], the IC50 in data set [1] is 5 µM. The “probe concentration down to which lipase is labeled” value in data set [2] is given as 20 nM. The “interaction with lipase/acylhydrolase (LipAc)” value in data set [3] was “does not exhibit strong interaction”. In addition, the ADB labeling preference result in data set [4] is on record as “strong preference”. In addition, the “KAS II labeling” value in data set [5] was “labeled”.

As to `C=CCCCCCCCC1C(=O)OC1CCc1ccccc1` (centres unmarked) [U1], in data set [6], the EC50 is below 100 µM. Also, the “cytotoxicity to HeLa cells” value in data set [7] is “non-cytotoxic; also recorded: Neither microscopic alterations of cell morphology nor significant inhibition of cell proliferation”. Besides, in data set [8], the “lower growth in the eukaryotic cells” value is “approximately 76%”.
